Test results reported in patent US20260327204A1, “DEGRADERS OF CYCLIN-DEPENDENT KINASE 12/13, COMPOSITIONS, AND USES THEREOF” (ZHEJIANG UNIVERSITY, priority 2023, published 2026).

Columns and labels:
[1] = biological target: CDK12 (Homo sapiens, UniProt Q9NYV4); test: Western blot degradation of CDK12 (Example 2); assay type: cell-based; set-up: degradation of CDK12/13 protein in leukemia cells KASUMI-1, MV4-11, and Jurkat; endogenous in cells; conditions: DC50 classes, cell line not given; for DC50: read-out: CDK12 degradation Activity
Sequence of CDK12 (Q9NYV4 whole entry): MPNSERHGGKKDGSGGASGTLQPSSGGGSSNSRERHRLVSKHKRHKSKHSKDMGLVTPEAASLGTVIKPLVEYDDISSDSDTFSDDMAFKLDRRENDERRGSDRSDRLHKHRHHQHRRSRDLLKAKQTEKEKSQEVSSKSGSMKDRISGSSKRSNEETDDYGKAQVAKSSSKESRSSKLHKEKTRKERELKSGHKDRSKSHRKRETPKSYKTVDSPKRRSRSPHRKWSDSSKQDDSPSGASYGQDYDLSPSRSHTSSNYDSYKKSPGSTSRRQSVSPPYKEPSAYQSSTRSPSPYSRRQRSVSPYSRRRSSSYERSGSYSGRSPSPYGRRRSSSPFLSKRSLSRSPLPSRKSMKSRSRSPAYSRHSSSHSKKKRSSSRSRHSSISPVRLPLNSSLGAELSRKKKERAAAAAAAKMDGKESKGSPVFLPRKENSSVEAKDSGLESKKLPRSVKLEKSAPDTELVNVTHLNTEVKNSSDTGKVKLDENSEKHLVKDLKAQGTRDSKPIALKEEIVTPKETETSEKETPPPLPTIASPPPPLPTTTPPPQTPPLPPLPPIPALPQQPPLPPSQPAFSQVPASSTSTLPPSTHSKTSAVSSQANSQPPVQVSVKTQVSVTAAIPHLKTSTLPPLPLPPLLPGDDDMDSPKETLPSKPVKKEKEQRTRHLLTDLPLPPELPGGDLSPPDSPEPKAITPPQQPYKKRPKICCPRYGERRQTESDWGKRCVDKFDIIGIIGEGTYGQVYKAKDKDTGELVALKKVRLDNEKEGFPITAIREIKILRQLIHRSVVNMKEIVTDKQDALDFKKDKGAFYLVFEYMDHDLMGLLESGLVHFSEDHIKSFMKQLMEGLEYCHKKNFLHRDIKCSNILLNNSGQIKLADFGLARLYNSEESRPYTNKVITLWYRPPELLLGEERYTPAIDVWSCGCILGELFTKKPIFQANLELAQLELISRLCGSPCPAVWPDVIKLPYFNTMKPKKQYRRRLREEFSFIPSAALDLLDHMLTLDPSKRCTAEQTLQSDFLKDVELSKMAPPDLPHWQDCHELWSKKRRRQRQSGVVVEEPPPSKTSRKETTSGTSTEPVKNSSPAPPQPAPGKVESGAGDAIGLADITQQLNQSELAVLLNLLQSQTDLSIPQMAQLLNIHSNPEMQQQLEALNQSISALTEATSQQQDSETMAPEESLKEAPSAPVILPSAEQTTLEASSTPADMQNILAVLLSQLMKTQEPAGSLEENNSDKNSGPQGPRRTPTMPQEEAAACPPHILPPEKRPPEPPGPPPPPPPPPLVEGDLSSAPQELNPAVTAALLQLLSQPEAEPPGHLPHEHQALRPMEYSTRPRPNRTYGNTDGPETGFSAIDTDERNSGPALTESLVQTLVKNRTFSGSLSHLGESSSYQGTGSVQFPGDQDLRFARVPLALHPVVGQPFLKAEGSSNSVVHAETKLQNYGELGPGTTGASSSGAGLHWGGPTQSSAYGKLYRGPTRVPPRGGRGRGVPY
Sequence of CDK12 (O75909 whole entry partner): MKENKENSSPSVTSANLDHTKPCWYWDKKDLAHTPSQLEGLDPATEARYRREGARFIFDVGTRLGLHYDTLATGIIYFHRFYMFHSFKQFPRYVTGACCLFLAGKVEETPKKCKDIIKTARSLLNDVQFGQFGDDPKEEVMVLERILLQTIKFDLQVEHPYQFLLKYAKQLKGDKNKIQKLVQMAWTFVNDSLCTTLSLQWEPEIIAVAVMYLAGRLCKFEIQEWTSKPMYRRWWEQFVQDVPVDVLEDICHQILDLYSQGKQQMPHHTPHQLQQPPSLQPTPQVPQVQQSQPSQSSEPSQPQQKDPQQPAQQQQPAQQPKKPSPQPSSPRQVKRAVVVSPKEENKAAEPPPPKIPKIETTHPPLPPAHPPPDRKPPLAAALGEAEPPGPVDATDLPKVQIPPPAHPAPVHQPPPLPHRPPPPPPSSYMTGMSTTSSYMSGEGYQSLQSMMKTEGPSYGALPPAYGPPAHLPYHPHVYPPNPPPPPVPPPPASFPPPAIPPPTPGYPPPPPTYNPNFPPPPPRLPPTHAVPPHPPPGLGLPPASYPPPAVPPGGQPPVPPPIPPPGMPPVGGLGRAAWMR
Protocol: (§1) Western blot was used to determine the degradation of CDK12/13 protein in leukemia cells KASUMI-1, MV4-11, and Jurkat. The two compounds with the best degradation effects were further validated for their ability to degrade CDK12/13 protein in breast cancer cells MDA-MB-231 using a concentration gradient.
(§2) • Cell lines: KASUMI-1, MV4-11, Jurkat, or MDA-MB-231 • Culture medium: DMEM/RIPM-1640+10% Hyclone serum • Compound dissolution method: Compounds were dissolved in DMSO to prepare a 50 mM stock solution, and then diluted to the corresponding concentrations.
(§3) (1) In vitro cell culture: The selected cells were cultured in a 37 °C constant temperature incubator with 5% CO2. Once the cell density reached 70-90%, they were passaged for subsequent experiments.
(§4) (2) Cell seeding: Cells were digested, and the cell suspension was transferred to a 1.5 mL Eppendorf tube. After centrifugation at 1,000 rpm for 5 min, the cells were resuspended in 2 mL of culture medium and counted. The cell suspension was seeded in a 24-well plate at a density of 200,000 cells per well and allowed to adhere for 8-12 h.
(§5) (3) Compound treatment: The 50 mM compound stock solution was diluted with cell culture medium to a final concentration of 0.01 μM-3 μM. Cells were incubated in a 37 °C incubator with 5% CO2 for 3 h-48 h. The DMSO group served as the negative control.
(§6) At the end of the treatment time, the cells were collected and washed once with PBS. An appropriate volume of 4% SDS was added to lyse the cells, and the mixture was sonicated until no longer viscous. After centrifugation at 12,000 rpm at room temperature for 30 min, the supernatant was transferred to a new EP tube for protein quantification.
(§7) The exposure results were quantitatively analyzed using Image J software. First, the grayscale values of the bands were calculated using Image J. Then, the grayscale value of the target protein was divided by the grayscale value of the internal reference protein for normalization. The calculation formula is: […]
(§8) Where A is the grayscale value and D is the degradation rate.
(§9) In the figures, CDK12 and CDK13 are the target proteins under study, and β-Actin and GAPDH are the internal reference proteins. Internal reference proteins are used to indicate the total protein amount in each experimental group for quantitative analysis.

[2] = biological target: CDK13 (Homo sapiens, UniProt Q14004); test: Western blot degradation of CDK13 (Example 2); assay type: cell-based; set-up: degradation of CDK12/13 protein in leukemia cells KASUMI-1, MV4-11, and Jurkat; endogenous in cells; conditions: DC50 classes, cell line not given; for DC50: read-out: CDK13 degradation Activity
Sequence of CDK13 (Q14004 whole entry): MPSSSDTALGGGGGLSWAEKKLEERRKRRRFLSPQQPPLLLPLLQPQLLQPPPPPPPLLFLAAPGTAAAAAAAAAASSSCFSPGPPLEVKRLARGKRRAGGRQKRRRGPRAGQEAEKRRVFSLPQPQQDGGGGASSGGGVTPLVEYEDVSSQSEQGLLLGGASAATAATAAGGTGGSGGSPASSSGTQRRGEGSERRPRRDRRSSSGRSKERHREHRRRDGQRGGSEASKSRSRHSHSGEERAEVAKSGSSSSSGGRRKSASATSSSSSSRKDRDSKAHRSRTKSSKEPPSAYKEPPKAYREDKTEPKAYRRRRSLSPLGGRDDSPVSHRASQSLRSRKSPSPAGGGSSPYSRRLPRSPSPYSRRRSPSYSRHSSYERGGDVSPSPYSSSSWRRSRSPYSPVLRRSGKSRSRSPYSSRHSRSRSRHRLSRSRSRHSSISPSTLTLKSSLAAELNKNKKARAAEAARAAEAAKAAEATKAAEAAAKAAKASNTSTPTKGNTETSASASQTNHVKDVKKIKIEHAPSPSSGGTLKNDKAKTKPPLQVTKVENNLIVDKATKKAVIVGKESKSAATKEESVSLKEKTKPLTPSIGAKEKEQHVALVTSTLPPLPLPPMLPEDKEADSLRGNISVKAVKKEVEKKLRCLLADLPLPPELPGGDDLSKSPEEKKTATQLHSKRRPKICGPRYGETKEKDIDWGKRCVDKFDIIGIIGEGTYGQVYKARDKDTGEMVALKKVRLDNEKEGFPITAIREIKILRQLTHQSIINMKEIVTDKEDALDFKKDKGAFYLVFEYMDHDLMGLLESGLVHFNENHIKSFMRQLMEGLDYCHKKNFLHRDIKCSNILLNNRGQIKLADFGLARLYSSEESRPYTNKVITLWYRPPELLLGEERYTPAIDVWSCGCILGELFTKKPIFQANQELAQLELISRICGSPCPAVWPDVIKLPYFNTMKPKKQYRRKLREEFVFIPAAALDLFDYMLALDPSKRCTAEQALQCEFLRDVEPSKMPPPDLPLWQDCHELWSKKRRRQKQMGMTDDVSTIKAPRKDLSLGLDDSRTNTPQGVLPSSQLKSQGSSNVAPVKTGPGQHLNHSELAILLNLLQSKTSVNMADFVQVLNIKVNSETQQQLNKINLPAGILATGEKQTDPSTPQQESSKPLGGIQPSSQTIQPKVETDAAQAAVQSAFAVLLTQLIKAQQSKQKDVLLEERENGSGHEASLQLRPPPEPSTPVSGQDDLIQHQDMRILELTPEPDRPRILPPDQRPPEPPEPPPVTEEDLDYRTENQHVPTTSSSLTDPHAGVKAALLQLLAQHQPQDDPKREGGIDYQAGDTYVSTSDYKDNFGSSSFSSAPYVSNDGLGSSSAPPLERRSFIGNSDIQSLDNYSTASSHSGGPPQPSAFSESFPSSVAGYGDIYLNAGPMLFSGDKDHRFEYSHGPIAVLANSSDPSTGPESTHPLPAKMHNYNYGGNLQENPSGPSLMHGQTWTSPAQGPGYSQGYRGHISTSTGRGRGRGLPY
Sequence of CDK13 (O75909 whole entry partner): as the sequence (O75909 whole entry partner) above
Protocol: as §1, §2, §3, §4, §5, §6, §7, §8, §9

Cc1ncsc1-c1ccc([C@H](C)NC(=O)[C@@H]2C[C@@H](O)CN2C(=O)[C@@H](NC(=O)C2CCN(C(=O)C3CCN(c4ccc(-c5ccc(N(C(=O)NCc6ccccc6)[C@H]6CC[C@H](Nc7ccc(C#N)cn7)CC6)cc5)cn4)CC3)CC2)C(C)(C)C)cc1 [Formula 21]
DC50 [1]: 1 to 3 µM | DC50 [2]: 1 to 3 µM

Cc1ncsc1-c1ccc([C@H](C)NC(=O)[C@@H]2C[C@@H](O)CN2C(=O)[C@@H](NC(=O)C2CCN(C(=O)C3CCN(c4ccc(N(C(=O)NCc5ccccc5)[C@H]5CC[C@H](Nc6ccc(C#N)cn6)CC5)cc4)CC3)CC2)C(C)(C)C)cc1 [Formula 22]
CDK12 degradation Activity [1]: − | CDK13 degradation Activity [2]: −

Cc1ncsc1-c1ccc([C@H](C)NC(=O)[C@@H]2C[C@@H](O)CN2C(=O)[C@@H](NC(=O)CC#CC2CN(c3ccc(-c4ccc(N(C(=O)NCc5ccccc5)[C@H]5CC[C@H](Nc6ccc(C#N)cn6)CC5)cc4)cn3)C2)C(C)(C)C)cc1 [Formula 23]
DC50 [1]: 3 to 10 µM | CDK13 degradation Activity [2]: −

Cc1ncsc1-c1ccc([C@H](C)NC(=O)[C@@H]2C[C@@H](O)CN2C(=O)[C@@H](NC(=O)CC#CC2CN(c3ccc(N(C(=O)NCc4ccccc4)[C@H]4CC[C@H](Nc5ccc(C#N)cn5)CC4)cc3)C2)C(C)(C)C)cc1 [Formula 24]
CDK12 degradation Activity [1]: − | CDK13 degradation Activity [2]: −

Cc1ncsc1-c1ccc([C@H](C)NC(=O)[C@@H]2C[C@@H](O)CN2C(=O)[C@@H](NC(=O)CN2CCC(C#Cc3ccc(N(C(=O)NCc4ccccc4)[C@H]4CC[C@H](Nc5ccc(C#N)cn5)CC4)cc3)CC2)C(C)(C)C)cc1 [Formula 25]
DC50 [1]: 3 to 10 µM | DC50 [2]: 3 to 10 µM

Cc1ncsc1-c1ccc([C@H](C)NC(=O)[C@@H]2C[C@@H](O)CN2C(=O)[C@@H](NC(=O)CN2CC(C#Cc3ccc(N(C(=O)NCc4ccccc4)[C@H]4CC[C@H](Nc5ccc(C#N)cn5)CC4)cc3)C2)C(C)(C)C)cc1 [Formula 26]
CDK12 degradation Activity [1]: − | CDK13 degradation Activity [2]: −

Cc1ncsc1-c1ccc([C@H](C)NC(=O)[C@@H]2C[C@@H](O)CN2C(=O)[C@@H](NC(=O)C2CC3(CC(Nc4ccc(N(C(=O)NCc5ccccc5)[C@H]5CC[C@H](Nc6ccc(C#N)cn6)CC5)cc4)C3)C2)C(C)(C)C)cc1 (stereo partly shown) [Formula 27]
DC50 [1]: 3 to 10 µM | CDK13 degradation Activity [2]: −

Cc1ncsc1-c1ccc([C@H](C)NC(=O)[C@@H]2C[C@@H](O)CN2C(=O)[C@@H](NC(=O)C2CC3(CC(Nc4ccc(-c5ccc(N(C(=O)NCc6ccccc6)[C@H]6CC[C@H](Nc7ccc(C#N)cn7)CC6)cc5)cn4)C3)C2)C(C)(C)C)cc1 (stereo partly shown) [Formula 28]
DC50 [1]: 3 to 10 µM | DC50 [2]: 3 to 10 µM

Cc1ncsc1-c1ccc([C@H](C)NC(=O)[C@@H]2C[C@@H](O)CN2C(=O)[C@@H](NC(=O)CC2CN(c3ccc(-c4ccc(N(C(=O)NCc5ccccc5)[C@H]5CC[C@H](Nc6ccc(C#N)cn6)CC5)cc4)cn3)C2)C(C)(C)C)cc1 [Formula 29]
DC50 [1]: 3 to 10 µM | CDK13 degradation Activity [2]: −

Cc1ncsc1-c1ccc([C@H](C)NC(=O)[C@@H]2C[C@@H](O)CN2C(=O)[C@@H](NC(=O)CC2CCN(c3ccc(-c4ccc(N(C(=O)NCc5ccccc5)[C@H]5CC[C@H](Nc6ccc(C#N)cn6)CC5)cc4)cn3)C2)C(C)(C)C)cc1 (stereo partly shown) [Formula 30]
DC50 [1]: 0.5 to 1 µM | DC50 [2]: 0.5 to 1 µM

Cc1ncsc1-c1ccc([C@H](C)NC(=O)[C@@H]2C[C@@H](O)CN2C(=O)[C@@H](NC(=O)CN2CCC(n3cc(-c4ccc(N(C(=O)NCc5ccccc5)[C@H]5CC[C@H](Nc6ccc(C#N)cn6)CC5)cc4)cn3)CC2)C(C)(C)C)cc1 [Formula 31]
DC50 [1]: 1 to 3 µM | DC50 [2]: 3 to 10 µM

N#Cc1ccc(N[C@H]2CC[C@H](N(C(=O)NCc3ccccc3)c3ccc(-c4ccc(OCCOCCNc5cccc6c5C(=O)N(C5CCC(=O)NC5=O)C6=O)nc4)cc3)CC2)nc1 (stereo partly shown) [Formula 32]
DC50 [1]: 1 to 3 µM | DC50 [2]: 0.5 to 1 µM

N#Cc1ccc(N[C@H]2CC[C@H](N(C(=O)NCc3ccccc3)c3ccc(-c4ccc(OCCOCCOCCOCCOCCNc5cccc6c5C(=O)N(C5CCC(=O)NC5=O)C6=O)nc4)cc3)CC2)nc1 (stereo partly shown) [Formula 35]
DC50 [1]: 1 to 3 µM | DC50 [2]: 3 to 10 µM

N#Cc1ccc(N[C@H]2CC[C@H](N(C(=O)NCc3ccccc3)c3ccc(-c4ccc(OCCOCCOCCOCCOCCOCCNc5cccc6c5C(=O)N(C5CCC(=O)NC5=O)C6=O)nc4)cc3)CC2)nc1 (stereo partly shown) [Formula 36]
CDK12 degradation Activity [1]: − | CDK13 degradation Activity [2]: −

N#Cc1ccc(N[C@H]2CC[C@H](N(C(=O)NCc3ccccc3)c3ccc(-c4ccc(OCCNc5cccc6c5C(=O)N(C5CCC(=O)NC5=O)C6=O)nc4)cc3)CC2)nc1 (stereo partly shown) [Formula 37]
DC50 [1]: 1 to 3 µM | DC50 [2]: 0.5 to 1 µM

N#Cc1ccc(N[C@H]2CC[C@H](N(C(=O)NCc3ccccc3)c3ccc(N4CCN(CCOCCNc5cccc6c5C(=O)N(C5CCC(=O)NC5=O)C6=O)CC4)cc3)CC2)nc1 (stereo partly shown) [Formula 38]
DC50 [1]: 0.5 to 1 µM | DC50 [2]: 1 to 3 µM

N#Cc1ccc(N[C@H]2CC[C@H](N(C(=O)NCc3ccccc3)c3ccc(N4CCN(CCOCCOCCNc5cccc6c5C(=O)N(C5CCC(=O)NC5=O)C6=O)CC4)cc3)CC2)nc1 (stereo partly shown) [Formula 39]
DC50 [1]: 1 to 3 µM | DC50 [2]: 3 to 10 µM

N#Cc1ccc(N[C@H]2CC[C@H](N(C(=O)NCc3ccccc3)c3ccc(N4CCN(CCOCCOCCOCCNc5cccc6c5C(=O)N(C5CCC(=O)NC5=O)C6=O)CC4)cc3)CC2)nc1 (stereo partly shown) [Formula 40]
DC50 [1]: 0.5 to 1 µM | DC50 [2]: 1 to 3 µM

N#Cc1ccc(N[C@H]2CC[C@H](N(C(=O)NCc3ccccc3)c3ccc(N4CCN(CCOCCOCCOCCOCCNc5cccc6c5C(=O)N(C5CCC(=O)NC5=O)C6=O)CC4)cc3)CC2)nc1 (stereo partly shown) [Formula 41]
DC50 [1]: 1 to 3 µM | DC50 [2]: 1 to 3 µM

N#Cc1ccc(N[C@H]2CC[C@H](N(C(=O)NCc3ccccc3)c3ccc(N4CCN(CCNc5cccc6c5C(=O)N(C5CCC(=O)NC5=O)C6=O)CC4)cc3)CC2)nc1 (stereo partly shown) [Formula 42]
DC50 [1]: 1 to 3 µM | DC50 [2]: 1 to 3 µM

CCNC(=O)N(c1ccc(-c2ccc(OCCOCCOCCOCCNc3cccc4c3C(=O)N(C3CCC(=O)NC3=O)C4=O)nc2)cc1)[C@H]1CC[C@H](Nc2ccc(C#N)cn2)CC1 (stereo partly shown) [Formula 43]
DC50 [1]: 1 to 3 µM | DC50 [2]: 1 to 3 µM

CCNC(=O)N(c1ccc(-c2ccc(N3CCN(CC(=O)N[C@H](C(=O)N4C[C@H](O)C[C@H]4C(=O)N[C@@H](C)c4ccc(-c5scnc5C)cc4)C(C)(C)C)CC3)nc2)cc1)[C@H]1CC[C@H](Nc2ccc(C#N)cn2)CC1 [Formula 44]
DC50 [1]: 0.5 to 1 µM | DC50 [2]: 0.1 to 0.5 µM

N#Cc1ccc(N[C@H]2CC[C@H](N(C(=O)NCc3ccccc3)c3ccc(-c4ccc(=O)n(CCOCCNc5cccc6c5C(=O)N(C5CCC(=O)NC5=O)C6=O)c4)cc3)CC2)nc1 (stereo partly shown) [Formula 46]
DC50 [1]: 1 to 3 µM | DC50 [2]: 0.5 to 1 µM

N#Cc1ccc(N[C@H]2CC[C@H](N(C(=O)NCc3ccccc3)c3ccc(-c4ccc(=O)n(CCOCCOCCOCCNc5cccc6c5C(=O)N(C5CCC(=O)NC5=O)C6=O)c4)cc3)CC2)nc1 (stereo partly shown) [Formula 48]
DC50 [1]: 3 to 10 µM | CDK13 degradation Activity [2]: −

N#Cc1ccc(N[C@H]2CC[C@H](N(C(=O)NCc3ccccc3)c3ccc(-c4ccc(=O)n(CCOCCOCCOCCOCCNc5cccc6c5C(=O)N(C5CCC(=O)NC5=O)C6=O)c4)cc3)CC2)nc1 (stereo partly shown) [Formula 49]
DC50 [1]: 0.5 to 1 µM | DC50 [2]: 1 to 3 µM

N#Cc1ccc(N[C@H]2CC[C@H](N(C(=O)NCc3ccccc3)c3ccc(-c4ccc(=O)n(CCOCCOCCOCCOCCOCCNc5cccc6c5C(=O)N(C5CCC(=O)NC5=O)C6=O)c4)cc3)CC2)nc1 (stereo partly shown) [Formula 50]
DC50 [1]: 3 to 10 µM | DC50 [2]: 3 to 10 µM

Cc1ncsc1-c1ccc([C@H](C)NC(=O)[C@@H]2C[C@@H](O)CN2C(=O)[C@@H](NC(=O)N2CCC3(CC2)CCN(c2ccc(N(C(=O)NCc4ccccc4)[C@H]4CC[C@H](Nc5ccc(C#N)cn5)CC4)cc2)CC3)C(C)(C)C)cc1 [Formula 51]
DC50 [1]: 3 to 10 µM | DC50 [2]: 3 to 10 µM

Cc1ncsc1-c1ccc([C@H](C)NC(=O)[C@@H]2C[C@@H](O)CN2C(=O)[C@@H](NC(=O)N2CCC3(CC2)CCN(c2ccc(N(C(=O)NCc4ccccc4)[C@H]4CC[C@H](Nc5ccc(C#N)cn5)CC4)cn2)CC3)C(C)(C)C)cc1 [Formula 52]
DC50 [1]: 3 to 10 µM | CDK13 degradation Activity [2]: −

Cc1ncsc1-c1ccc([C@H](C)NC(=O)[C@@H]2C[C@@H](O)CN2C(=O)[C@@H](NC(=O)N2CCN(c3ccc(N(C(=O)NCc4ccccc4)[C@H]4CC[C@H](Nc5ncc6ccccc6n5)CC4)cc3)CC2)C(C)(C)C)cc1 [Formula 53]
DC50 [1]: 3 to 10 µM | DC50 [2]: 1 to 3 µM
